Data: US20150258043A1, “USE OF SPHINGOID LONG CHAIN BASES AND THEIR ANALOGS IN TREATING AND PREVENTING BACTERIAL INFECTIONS” (YEDA RESEARCH AND DEVELOPMENT CO. LTD., priority 2012, published 2015)

Columns and labels:
[1] = tested on: P. aeruginosa strains 762, PA14 and ATCC 27853; assay: Pulmonary P. aeruginosa infection of CF and CerS2 null mice, inhalation treatment (bacteria in lung, sickness score); type: in vivo, mouse; conditions: CF mice; C16-ceramide and sphingosine at a 1:1 molar ratio, 1 h before infection, strain 762
Protocol: (A,B) The number of bacteria in the lungs and the overall sickness score (C,D) of WT, CerS2 null and CF mice 3-4 h after intranasal infection with 1×10^8 CFU of P. aeruginosa strains 762 (A,C) and CF mice with strains PA14 and ATCC 27853. Mice were inhaled with 0.9% NaCl or acid ceramidase 1 h prior (b.i.) to infection, or with sphingosine or FTY720 1 h before (b.i.) or 1 h after (a.i.) infection. Sickness score 4, severely affected (unresponsive animal); score 3 affected, (heavy breathing, low body temperature, ruffled fur) score 2, moderately affected (ruffled fur, heavy breathing); score 1, slightly affected (ruffled fur); score 0, unaffected (healthy appearance). Data are means±s.d., n=4.
Pulmonary infection of CF or CerS2 mice was achieved by intranasal application of P. aeruginosa strains 762, ATCC 27853 or PA14. Mice inhaled acid ceramidase, sphingosine, FTY720 or a combination of sphingosine and ceramide 1 hr before or after pulmonary infection. The number of bacteria in the lung was determined by culturing aliquots of lysed lungs on agar plates. Clinical symptoms of the infection were scored.
Inhalation was performed with a PARI Boy SX nebulizer (PARI GmbH, Starnberg, Germany). This nebulizer generates a fine aerosol mist by pumping the fluid with an air jet. The mice inhaled the aerosol via a mask that is part of an oral inhalation device for children (LL-Nebulizer); the mask was clipped at the sides to cover only the mouse's nose and the surrounding part of the face. […]
P. aeruginosa were grown for 14 to 14.5 h on fresh tryptic soy agar (TSA) plates (Becton Dickinson Biosciences, Germany). […] The bacterial OD was determined, and the bacteria were diluted in prewarmed H/S to a concentration of 1×10^8 CFU per 20 μL. […]
Lungs were removed, homogenised and lysed for 10 min in 5 mg/ml saponin to release intracellular bacteria. […] Bacterial counts (CFU) were counted after 18 h.

P. aeruginosa strain 762 = assay: Incubation of bacteria with sphingosine and increasing C16-ceramide, CFU count; type: cell-based, Pseudomonas aeruginosa; conditions: in the presence of 10 μM sphingosine
Protocol: FIGS. 4A-D. The ceramide/sphingosine ratio regulates P. aeruginosa growth. (A) Representative image of two independent experiments (left hand panel) after addition of Sytox green (1 μM) for 30 min in the absence or presence of 50 μM sphingosine or 50 μM C16-ceramide (C16-Cer) in 1% DMSO. Fluorescent and thus permeabilised bacteria were quantified (right hand panel). (B-D) The inhibitory effect of sphingosine on the growth of P. aeruginosa strain 762 is decreased in vitro and in vivo by C16-ceramide. (B) Bacteria were incubated with 10 μM sphingosine, and increasing concentrations of C16-ceramide, and growth was determined by counting colony forming unit (CFU) after 24 hrs growth on LB agar plates. Number of bacteria in the lung (C) and sickness score (D) of CF mice or WT mice inhaled with either sphingosine or a combination of sphingosine and C16-ceramide 1 h before (b.i.) with 10^8 P. aeruginosa CFU strain 762. Data are means±s.d., n=3 in (A,B) and n=4 in (C,D).
The in vitro effect of sphingosine in the presence or absence of ceramide was determined by incubation of early-logarithmic grown P. aeruginosa with sphingosine or ceramide or both in different ratios and measurement of surviving bacteria measuring the number of colony forming units 24 and 48 hrs after treatment.
Bacteria were incubated in vitro with sphingosine and increasing amounts of C16-ceramide. […]

CCCCCCCCCCCCC/C=C/[C@@H](O)[C@H](CO)NC(=O)CCCCCCCCCCCCCCC [C16-ceramide]
effect of co-inhaled C16-ceramide on protection by sphingosine [1]: abrogated the protective effect of sphingosine and restored susceptibility to P. aeruginosa infection
C16-ceramide concentration restoring bacterial growth (P. aeruginosa strain 762): ≥ 10 µM
